# Legend:
# [1] = system: non-injured control animals; assay: Stretch response in non-injured control animals after bumetanide injection; assay type: in vivo, CD-1 mice
# From the text: Adult female CD-1 mice (n=120 weight, 27-37 g) were used for all of the animal studies performed. A total of 51 animals were used for the long-term stimulation studies that included four groups. Animals with SCI were randomly divided into three groups: a-tsDCS-treated group (n=16), a c-tsDCS-treated group (n=15), and a sham-treated group (n=10), and a non-injured control group (n=10). Subgroups of these animals were also used to study long-term changes in expression for KCC2, pKCC2, NKCC1, and pNKCC1. Injured animals with spasticity were used to test the immediate effect of tsDCS on rate-dependent depression (RDD) (n=6), while the relatively short-term effects of tsDCS on the expression of NKCC1 and pNKCC1 were studied in non-injured animals (n=10). Pharmacological studies involving bumetanide (NKCC1 blocker) were conducted with SCI animals (n=9) and non-injured control animals (n=3). Meanwhile, qPCR studies were conducted with non-injured control animals (n=41). All of the study protocols were approved by the College of Staten Island IACUC committee. […]
# [2] = system: animals with spasticity following SCI; assay: Stretch-apparatus test of spasticity (muscle resistance, EMG) in mice with SCI after bumetanide injection; assay type: in vivo, CD-1 mice
# From the text: Adult female CD-1 mice (n=120 weight, 27-37 g) were used for all of the animal studies performed. A total of 51 animals were used for the long-term stimulation studies that included four groups. Animals with SCI were randomly divided into three groups: a-tsDCS-treated group (n=16), a c-tsDCS-treated group (n=15), and a sham-treated group (n=10), and a non-injured control group (n=10). Subgroups of these animals were also used to study long-term changes in expression for KCC2, pKCC2, NKCC1, and pNKCC1. Injured animals with spasticity were used to test the immediate effect of tsDCS on rate-dependent depression (RDD) (n=6), while the relatively short-term effects of tsDCS on the expression of NKCC1 and pNKCC1 were studied in non-injured animals (n=10). Pharmacological studies involving bumetanide (NKCC1 blocker) were conducted with SCI animals (n=9) and non-injured control animals (n=3). Meanwhile, qPCR studies were conducted with non-injured control animals (n=41). All of the study protocols were approved by the College of Staten Island IACUC committee.
# Following administration of a ketamine/xylazine cocktail (90/10 mg/kg, i.p.) to achieve deep anesthesia, a laminectomy at thoracic T10 vertebra was performed to expose the T13 spinal segment. An infinite horizon (IH) spinal cord impactor (IH-0400, Precision Systems & Instrumentation, VA, USA) was used to induce a contusive SCI force. The impact force level was 60 kdyn and was selected based on data collected from exploratory experiments that were conducted with this impactor. In these preliminary studies, contusion injuries were induced with increasing impact forces in order to optimize the SCI contusion force needed to produce spastic mice. Mice impacted at 60 kdyn produced ideal spastic behavior at approximately 2-3 weeks post-injury. Impact was applied by using a standard mouse tip (diameter=1.3 mm). Following the contusion procedure, overlying muscles and skin were sutured and the surgical site was covered with a layer of gentamicin sulfate ointment to prevent infection. Each mouse subsequently received a number and then was placed on a warming pad (30° C.) for recovery.
# A computer-controlled stretch device was assembled in our laboratory from a stepper motor (DMX-UMD-23m, ARCUS Technology Inc., CA. USA), a foot presser mounted on a force-displacement transducer (FT03, GRASS Technologies/NATUS, CA, USA) connected to a bridge amplifier (ADInstruments, Colorado Springs, CO, USA), and a mouse holder (FIG. 1). The transducer was permanently fixed to a linear rail-guided carriage (SGB15NUU, ZNT Automatic Technology Co, Zhejiang, China). The rotational movement of the stepper motor is converted into linear displacement at the carriage by using a set of jointed flat-aluminum rods that are connected with swivel hub bearings. Two computer software programs were utilized to control the stepper motor and to perform the online (during) stretch and electromyogram (EMG) recordings. First, a stepper motor control software (DMX-UMD GUI, ARCUS Technology Inc.) was re-written to permit the execution of three consecutively timed stretches, with each stretch separated by two 10-s recovery intervals. The stepper motor was also programmed to provide three different stretch speeds: 18/s, 180/s, and 1800/s, which correspond to 3 RPM, 30 RPM, and 300 RPM, respectively. The second software package used was LabChart-7 bundled with PowerLab data acquisition system software (ADInstruments) which was used to gather and analyze data.
# A mouse restraining system was fabricated in our laboratory (FIG. 1) from three components. 1) A clear Plexiglas acrylic tube served as the mouse holding chamber. 2) An internally adjustable support system made of a clear acrylic concave stabilization plate. The location of the plate was able to be adjusted linearly along the length of the chamber via a handle that protruded through a cutout that ran the entire length of the tube. […]
# [3] = 60 mg/kg, 5, 20, 30 and 45 min after injection vs baseline, p<0.001
compound,measurement,setting,value
CCCCNc1cc(C(=O)O)cc(S(N)(=O)=O)c1Oc1ccccc1 [bumetanide],animals exhibiting a reduced reflexive stretch response,"[1]; 60 mg/kg, non-injured control animals",21%
same,reduction in reflexive muscle resistance in controls,"[1]; after bumetanide injection, controls",21 °/0
same,reductions in spasticity,"[2]; 30 mg/kg, one hour after administration, n=5, data not shown",moderate reductions in spasticity
same,corresponding EMG,[2]; [3],significant reduction
same,reduction in peak resistance (reflexive muscle resistance),[2]; [3],34%
same,background activity and resting muscle tone on slow stretches,"[2]; 60 mg/kg, thirty min after injection",reduce background activity and resting muscle tone
same,spasticity following bumetanide treatment,"[2]; SCI mice, dose not given",spasticity was reduced
same,muscle resistance and concurrent EMG at low speed and high speed (FIG. 9),"[2]; following bumetanide injection, n=9 mice, vs baseline 2",decreases in muscle resistance and concurrent EMG

# — patent publication US11986659B2, “Modulation of neuronal NKCC1 as a therapeutic strategy for spasticity and related disorders” (Research Foundation of the City University of New York, priority 2018, dated 2024)
